The record followed here is US20220119399A1, “COMPOUNDS AND COMPOSITIONS THAT CAUSE MYCN AND/OR CMYC DEGRADATION AND METHODS OF USE THEREOF” (THE TRUSTEES OF COLUMBIA UNIVERSITY IN THE CITY OF NEW YORK, priority 2018, published 2022).

Data set [1] relates to pS6K. Nature of the data set: S6K phosphorylation western blot in A549 cells. The data set is classed as cell-based. As to conditions: 24 hrs. An excerpt: Membranes were blocked using Odyssey Blocking Buffer (LI-COR) for 1 hr at room temperature. […] Primary antibodies used in these studies include: MycN (CST; 1:500 dilution), Actin (SCBT; 1:2000 dil.), cMYC (CST; 1:500 dil.), pAKT (S473; CST; 1:500 dil.), AKT (CST; 1:2000), pP70 (T389; CST; 1:1000) P70 (CST; 1:1000).
We then tested whether mTORC2 complex was disrupted by isopomiferin treatment. […] to enable translation. We tested whether phosphorylation of S6K was inhibited by isopomiferin by treating SK-N-Be2 cells to 10 μM and 20 μM isopomiferin for 24 hours and blotting for pS6K, using total S6K protein as a loading control. […] We then tested whether this was consistent across cell lines by performing a similar experiment in an NSCLC cell line, A549.
In general terms: In western blotting, separated proteins are transferred to a membrane and probed.

Data set [2] concerns CCL5 transcript. Nature of the data set: qPCR of CCL5 transcript in A549 cells. In kind it is cell-based. As to conditions: 48 hr. How it is done: Reverse transcription quantitative polymerase chain reaction (RT-qPCR) was used to quantify transcript abundance of genes of interest. Total RNA was isolated from cells using the Qiaquick RNeasy isolation kit following manufacturer's instruction (QIAGEN). RNA quality and abundance was measured using a nanodrop spectrophotometer. A total of 2 μg RNA was used as a template for reverse transcription reactions. cDNA synthesis was performed using TaqMan reverse transcriptase following the manufacturer's instructions, using both oligod(T) and random hexamers as primers for RT reactions. RNAse treatment of cDNA removed any residual RNA in cDNA samples. cDNA samples were diluted 10-fold into nuclease-free dH2O, and used as the template for quantitative PCR reactions were performed in a Viia7 […] thermocycler using SYBR green and gene-specific primers (Table 1). qPCR reactions were performed using the Viia7 Real-Time PCR system (Applied Biosystems), and relative transcript abundance evaluated using the deltaCT method, using the GAPDH housekeeping gene as normalization control.
In lung cancer, cMyc overexpression suppresses CCL5, an antigen that enables the immune system to detect cancer cells (Topper et al. 2017). By suppressing CCL5, cMyc enables tumors to evade immune surveillance (Topper et al. 2017). […]
(Real-time PCR tracks product formation cycle by cycle.)

Data set [3] in a line: Tolerability in tumor-bearing mice. The data set is classed as in vivo. The conditions noted are these: 10 mg/kg i.p., 24 hrs. How it is done: 6-week old male mice were purchased from Charles River Laboratories, and housed in Columbia University's animal control barrier facilities, and mice were allowed one week to acclimate to their new environment. To establish tumor xenografts, 10×10^6 SK-N-Be2 cells were suspended in a 200 μL volume of 50% matrigel slurry. […] Mice were kept on standard chow diet (Purina), and their cage dressing changed twice weekly. Animals were investigated regularly for any sign of discomfort. […] To create the stock solution of isopomiferin, 5 mg of isopomiferin (MicroSource) was dissolved into 50 μL dimethyl sulfoxide (DMSO). To this 450 μL of cyclodextrin solution was added dropwise. Cyclodextrin is dissolved as a 50% w/v solution in 40% EtOH. It is important to add the cyclodextrin slowly and with continual mixing to solubilize the compound. This solution was added to one volume of PBS and filter-sterilized. This solution was then diluted to achieve appropriate concentrations for a 200 μL volume administration at 10 mg/kg to each mouse. The solution was administered to animals via intraperitoneal injection (i.p.). […]
The ability of the compounds to inhibit growth of MYCNA tumor xenografts was evaluated by treating tumor bearing mice with daily i.p. injections of 20 mg/kg isopomiferin or pomiferin. […] MYCN abundance was evaluated mid-experiment, following 14 days of treatment.

In data set [4] the target is T1, CK2a2 (Homo sapiens, UniProt P19784).
T1 construct: purchased Reaction Biology Corporation (Malvern, Pa.)
T1 sequence (P19784 whole entry): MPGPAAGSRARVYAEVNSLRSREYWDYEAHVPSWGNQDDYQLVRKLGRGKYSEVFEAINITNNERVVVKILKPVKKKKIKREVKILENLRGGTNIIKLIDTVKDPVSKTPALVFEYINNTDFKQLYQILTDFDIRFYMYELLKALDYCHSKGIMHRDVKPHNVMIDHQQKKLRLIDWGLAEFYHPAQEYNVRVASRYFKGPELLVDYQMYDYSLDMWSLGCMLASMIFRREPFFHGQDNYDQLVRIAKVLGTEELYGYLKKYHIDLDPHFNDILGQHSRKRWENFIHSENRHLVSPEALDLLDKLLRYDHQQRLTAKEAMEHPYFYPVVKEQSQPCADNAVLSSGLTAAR
Nature of the data set: Cell-free biochemical CK2a2 kinase assay. How it is done:
Cell-free biochemical kinase assays were performed at Reaction Biology Corporation (Malvern, Pa.). In brief, kinase substrates were diluted into reaction buffer containing 20 mM Hepes (pH 7.5), 10 mM MgCl2, 1 mM EGTA, 0.02% Brij35, 0.02 mg/ml BSA, 0.1 mM Na3VO4, 2 mM DTT, 1% DMSO. Purified protein (CK2a1, CK2a2, or mTOR) was added to the substrate solution and gently mixed. Test compounds were diluted from 10 mM DMSO stock solutions into the reaction buffer using an Echo550 acoustic dispenser, followed by incubation at RT for 20 min. 33P-ATP (10 μCi/μL) was added to reaction mixture, following incubation for 2 h at RT. Reactions were then spotted onto P81 ion exchange paper and kinase activity was detected by filter binding method.

On to `CC1(C)C=Cc2c(c3c(c4c(=O)c(-c5ccc(O)c(O)c5)coc24)OC(C)(C)CC3)O1` [isopomiferin], for which the pS6K entry in data set [1] is listed as “suppressed pS6K in A549 cells”. In data set [2], the “increase of CCL5 transcript” value is 15 fold. For the same compound, in data set [3], the “toxicity observed in animals” value is recorded as “No toxicity issues were observed”.
For `CC(C)=CCc1c2c(c3occ(-c4ccc(O)c(O)c4)c(=O)c3c1O)C=CC(C)(C)O2` [pomiferin], the CK2a2 kinase activity entry in data set [4] is “inhibiting both isoforms equally in a concentration-dependent manner”.
